Results as given in patent publication US11066414B2, “Cot modulators and methods of use thereof” (Gilead Sciences, Inc., priority 2015, dated 2021).

The molecules below were run on TNFα (assay: Cot Monocyte TNFα Cell Based Assay). Conditions: Homo sapiens, Monocyte, read-out: EC50 TNF, LPS-stimulated human monocytes, TNFα.

Structure (SMILES) | EC50 [nM]
Cc1ncccc1[C@H](Nc1cc(Cl)c2ncc(C#N)c(Nc3ccc(Cl)c(Cl)c3F)c2c1)c1cn(C(C)C)nn1 [Example 232, (S)-8-chloro-4-((3,4-dichloro-2-fluorophenyl)amino)-6-(((1-isopropyl-1H-1,2,3-triazol-4-yl)(2-methylpyridin-3-yl)methyl)amino)quinoline-3-carbonitrile] | 346
Cc1ocnc1[C@H](Nc1cc(Cl)c2ncc(C#N)c(Nc3ccc(F)c(Cl)c3)c2c1)c1cn(C2CCN(C(C)(C)C)CC2)nn1 [Example 263, (S)-6-(((1-(1-(tert-butyl)piperidin-4-yl)-1H-1,2,3-triazol-4-yl)(5-methyloxazol-4-yl)methyl)amino)-8-chloro-4-((3-chloro-4-fluorophenyl)amino)quinoline-3-carbonitrile] | 242
[2H]C(Nc1cc(Cl)c2ncc(C#N)c(N[C@H](CC)c3ccccc3)c2c1)(c1cn(C2CC2)nn1)c1cc(F)cnc1C (stereo partly drawn) [Example 113, 8-chloro-6-(((1-cyclopropyl-1H-1,2,3-triazol-4-yl)(5-fluoro-2-methylpyridin-3-yl)methyl-d)amino)-4-(((R)-1-phenylpropyl)amino)quinoline-3-carbonitrile] | 253
Cn1ccc2c([C@H](Nc3cc(Cl)c4ncc(C#N)c(NCC(C)(C)C)c4c3)c3cn(C(CF)CF)nn3)cccc2c1=O [Example 777, (S)-8-chloro-6-(((1-(1,3-difluoropropan-2-yl)-1H-1,2,3-triazol-4-yl)(2-methyl-1-oxo-1,2-dihydroisoquinolin-5-yl)methyl)amino)-4-(neopentylamino)quinoline-3-carbonitrile] | 46
Cc1nc(F)ccc1[C@H](Nc1cc(Cl)c2ncc(C#N)c(N[C@H](C)C(C)(C)C)c2c1)c1cn(C2(C(F)(F)F)CC2)nn1 [Example 582, 8-chloro-4-(((R)-3,3-dimethylbutan-2-yl)amino)-6-(((S)-(6-fluoro-2-methylpyridin-3-yl)(1-(1-(trifluoromethyl)cyclopropyl)-1H-1,2,3-triazol-4-yl)methyl)amino)quinoline-3-carbonitrile] | 184
N#Cc1cnc2c(Cl)cc(N[C@@H](c3cnc(F)c(F)c3)c3c[nH]nn3)cc2c1Nc1cnc(F)c(F)c1 [Example 163, (S)-8-chloro-6-(((5,6-difluoropyridin-3-yl)(1H-1,2,3-triazol-4-yl)methyl)amino)-4-((5,6-difluoropyridin-3-yl)amino)quinoline-3-carbonitrile] | 4140
Cc1nc(F)ccc1[C@H](Nc1cc(Cl)c2ncc(C#N)c(N[C@H](CCC#N)c3ccccc3)c2c1)c1cn(C2CC2)nn1 [Example 431, 8-chloro-4-(((R)-3-cyano-1-phenyl-propyl)amino)-6-(((S)-(1-cyclopropyl-1H-1,2,3-triazol-4-yl)(6-fluoro-2-methylpyridin-3-yl)methyl)amino)-quinoline-3-carbonitrile] | 21
Cn1c(=O)ccc2c([C@H](Nc3cc(Cl)c4ncc(C#N)c(NCC(C)(C)C)c4c3)c3cn(C4(C(F)(F)F)CC4)nn3)cccc21 [Example 789, (S)-8-chloro-6-(((1-methyl-2-oxo-1,2-dihydroquinolin-5-yl)(1-(1-(trifluoromethyl)cyclopropyl)-1H-1,2,3-triazol-4-yl)methyl)amino)-4-(neopentylamino)quinoline-3-carbonitrile] | 156
Cc1nc(F)ccc1[C@H](Nc1cc(Cl)c2ncc(C#N)c(NCC(C)(C)C)c2c1)c1cn(CC(C)(F)F)nn1 [Example 749, (S)-8-chloro-6-(((1-(2,2-difluoropropyl)-1H-1,2,3-triazol-4-yl)(6-fluoro-2-methylpyridin-3-yl)methyl)amino)-4-(neopentylamino)quinoline-3-carbonitrile] | 66
Cc1nc(F)ccc1[C@H](Nc1cc(Cl)c2ncc(C#N)c(NCC(C)(C)CO)c2c1)c1cn(C2(C(F)F)CC2)nn1 [Example 746, (S)-8-chloro-6-(((1-(1-(difluoromethyl)cyclopropyl)-1H-1,2,3-triazol-4-yl)(6-fluoro-2-methylpyridin-3-yl)methyl)amino)-4-((3-hydroxy-2,2-dimethylpropyl)amino)quinoline-3-carbonitrile] | 178
Cn1ncc2c([C@H](Nc3cc(Cl)c4ncc(C#N)c(NCC(C)(C)C)c4c3)c3cn(C4(C(F)(F)F)CC4)nn3)cccc21 [Example 543, (S)-8-chloro-6-(((1-methyl-1H-indazol-4-yl)(1-(1-(trifluoromethyl)cyclopropyl)-1H-1,2,3-triazol-4-yl)methyl)amino)-4-(neopentylamino)quinoline-3-carbonitrile] | 422
N#Cc1cnc2c(Cl)cc(N[C@@H](c3cccnc3)c3cn(C4CCN(C5COC5)CC4)nn3)cc2c1Nc1ccc(F)c(Cl)c1 [Example 314, (S)-8-chloro-4-((3-chloro-4-fluorophenyl)amino)-6-(((1-(1-(oxetan-3-yl)piperidin-4-yl)-1H-1,2,3-triazol-4-yl)(pyridin-3-yl)methyl)amino)quinoline-3-carbonitrile] | 302
Cc1nc(F)ccc1[C@H](Nc1cc(C#N)c2ncc(C#N)c(NCC(C)(C)C)c2c1)c1cn(C2(C(F)(F)F)COC2)nn1 [Example 644, (S)-6-(((6-fluoro-2-methylpyridin-3-yl)(1-(3-(trifluoromethyl)oxetan-3-yl)-1H-1,2,3-triazol-4-yl)methyl)amino)-4-(neopentylamino)quinoline-3,8-dicarbonitrile] | 88
Cc1ncoc1[C@H](Nc1cc(Cl)c2ncc(C#N)c(Nc3ccc(F)c(Cl)c3)c2c1)c1cn(C2CCN(C(C)(C)C)CC2)nn1 [Example 265, (R)-6-(((1-(1-(tert-butyl)piperidin-4-yl)-1H-1,2,3-triazol-4-yl)(4-methyloxazol-5-yl)methyl)amino)-8-chloro-4-((3-chloro-4-fluorophenyl)amino)quinoline-3-carbonitrile] | 426
Cn1ccc([C@H](Nc2cc(Cl)c3ncc(C#N)c(Nc4ccc(F)c(Cl)c4)c3c2)c2cn(C3CCN(C(C)(C)C)CC3)nn2)n1 [Example 268, (R)-6-(((1-(1-(tert-butyl)piperidin-4-yl)-1H-1,2,3-triazol-4-yl)(1-methyl-1H-pyrazol-3-yl)methyl)amino)-8-chloro-4-((3-chloro-4-fluorophenyl)-amino)quinoline-3-carbonitrile] | 234

Same assay, conditions: read-out: EC50 TNF; LPS-stimulated human monocytes, TNFα

Structure (SMILES) | EC50 [nM]
CC(C)(C)N1CCC(n2cc([C@@H](Nc3cc(Cl)c4ncc(C#N)c(Nc5ccc(F)c(Cl)c5)c4c3)c3cccnc3)nn2)CC1 [Example 369, (S)-6-(((1-(1-(tert-butyl)piperidin-4-yl)-1H-1,2,3-triazol-4-yl)(pyridin-3-yl)methyl)amino)-8-chloro-4-((3-chloro-4-fluorophenyl)amino)quin-oline-3-carbonitrile] | 89

Same assay, conditions: read-out: EC50 TNF; LPS-stimulated human monocytes, TNFα TR-FRET

Structure (SMILES) | EC50 [nM]
Cn1ccc2c([C@H](Nc3cc(Cl)c4ncc(C#N)c(NCC(C)(C)C)c4c3)c3nnn(C45CC(C4)C5)c3F)cccc2c1=O [Example 961, (S)-6-(((1-(bicyclo[111]pentan-1-yl)-5-fluoro-1H-1,2,3-triazol-4-yl)(2-methyl-1-oxo-1,2-dihydroisoquinolin-5-yl)methyl)amino)-8-chloro-4-(neopentylamino)quinoline-3-carbonitrile] | 48
